These results are taken from ChEMBL document CHEMBL5576094, “A Diterpenoid of the Medicinal Plant Andrographis paniculata Targets Cutaneous TRPV3 Channel and Relieves Itch” (J Nat Prod, 2024).

Molecules are shown by their SMILES.

In experiment [1] the target is T1, Transient receptor potential cation channel subfamily V member 3 (Homo sapiens, UniProt Q8NET8).
T1 sequence (Q8NET8 whole entry): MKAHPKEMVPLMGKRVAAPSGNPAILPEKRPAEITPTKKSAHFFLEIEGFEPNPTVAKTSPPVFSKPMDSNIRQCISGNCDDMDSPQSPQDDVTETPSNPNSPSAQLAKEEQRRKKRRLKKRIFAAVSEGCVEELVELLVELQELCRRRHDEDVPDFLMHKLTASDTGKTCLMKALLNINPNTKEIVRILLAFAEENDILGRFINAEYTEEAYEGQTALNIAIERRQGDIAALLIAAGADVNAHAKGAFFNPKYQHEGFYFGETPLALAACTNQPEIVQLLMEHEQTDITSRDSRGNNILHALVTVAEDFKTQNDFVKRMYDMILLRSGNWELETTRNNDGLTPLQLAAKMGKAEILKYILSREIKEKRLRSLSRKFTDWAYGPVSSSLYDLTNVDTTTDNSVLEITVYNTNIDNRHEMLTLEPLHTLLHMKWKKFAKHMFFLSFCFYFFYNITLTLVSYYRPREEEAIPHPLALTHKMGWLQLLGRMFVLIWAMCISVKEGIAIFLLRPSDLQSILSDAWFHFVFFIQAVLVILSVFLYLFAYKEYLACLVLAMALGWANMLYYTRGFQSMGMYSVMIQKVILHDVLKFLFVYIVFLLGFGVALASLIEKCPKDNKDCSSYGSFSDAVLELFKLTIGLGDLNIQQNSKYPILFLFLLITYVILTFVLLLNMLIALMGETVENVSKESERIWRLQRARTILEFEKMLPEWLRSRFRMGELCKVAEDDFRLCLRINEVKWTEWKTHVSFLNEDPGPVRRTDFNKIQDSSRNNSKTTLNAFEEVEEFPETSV
Briefly: Inhibition of human TRPV3 expressed in HEK293 cells assessed as reduction in 2-APB induced channel current at voltage ramp from -100 to +100 mV by whole-cell patch clamp electrophysiology. It is filed as cell-based. For orientation: In patch-clamp work, channel activity is measured electrically.

For experiment [2], the species on record is Mus musculus. Kind of experiment: Antipruritic activity in carvacrol-induced scratching C57BL/6 mouse model assessed as inhibition of neck scratching behavior at 30 uM, ID pretreated for 30 mins followed by carvacrol stimulation and measured for 30 mins relative to control. The experiment is classed as functional. The note with it: C57BL/6, 1 h, time 60 min.

The species named for experiment [3] is Mus musculus. Briefly: Antipruritic activity in histamine-induced scratching C57BL/6 mouse model assessed as inhibition of neck scratching behavior at 0.3 to 30 uM, ID pretreated for 30 mins followed by histamine stimulation and measured for 30 mins relative to control. The experiment is classed as functional. The note with it: dose 0.3-30 µM, time 60 min, 1 h.

The species named for experiment [4] is Mus musculus. Kind of experiment: Antipruritic activity in carvacrol-induced scratching C57BL/6 mouse model assessed as inhibition of neck scratching behavior at 300 uM, ID pretreated for 30 mins followed by carvacrol stimulation and measured for 30 mins relative to control. The experiment is classed as functional. The conditions noted are these: C57BL/6, 1 h, time 60 min.

The species entered for experiment [5] is Mus musculus. Kind of experiment: Antipruritic activity in carvacrol-induced scratching C57B/6 mouse model assessed as inhibition of neck scratching behavior at 10 uM, ID pretreated for 30 mins followed by carvacrol stimulation and measured for 30 mins relative to control. The experiment is classed as functional. The conditions noted are these: C57B/6, 1 h, time 60 min.

For experiment [6], the species on record is Mus musculus. Kind of experiment: Antipruritic activity in carvacrol-induced scratching C57B/6 mouse model assessed as inhibition of neck scratching behavior at 50 uM, ID pretreated for 30 mins followed by carvacrol stimulation and measured for 30 mins relative to control. The experiment is classed as functional. The conditions noted are these: C57B/6, 1 h, time 60 min.

A word on the IC50: it is the midpoint of a concentration-inhibition curve. Usually inhibition in vivo stands for the share of the control response that was lost under treatment. As for `C[C@@H]1O[C@@H](O[C@@H]2[C@@H](O)[C@H](OCCc3ccc(O)c(O)c3)O[C@H](CO[C@@H]3OC[C@](O)(CO)[C@H]3O)[C@H]2OC(=O)/C=C/c2ccc(O)c(O)c2)[C@H](O)[C@H](O)[C@H]1O`, the IC50 in experiment [1] came to 6.7 µM. In addition, the inhibition in vivo at 30 µM in the experiment filed under Mus musculus [2] was approximately 56%. Also, the “inhibition (INH)” value in the experiment listed under Mus musculus [3] is given as 57%. Further, the inhibition in vivo at 300 µM in the experiment filed under Mus musculus [4] came out at 77%.

For `CCCCOc1ccc(C(=O)CCN2CCCCC2)cc1` [DYCLONINE], the inhibition in vivo at 10 µM in the experiment listed under Mus musculus [5] is approximately 41%. Moreover, the inhibition in vivo at 50 µM in the experiment filed under Mus musculus [6] came out at 100%.
